# Reference: US10501518B2 (priority 2013, dated 2019)
# Where two headings read alike, the source gives them in different places. Starred links: 1 amine or outer side, 2 acyl side, 3 side chain; linkers in the order of their positions; H or OH if unused. Non-standard residues stand in square brackets, D forms with d. Residues, ends and D or L forms follow the SMILES beside them. *: point of attachment. NH(1S,2S-2-CONH2-cPent) = NC(=O)[C@H]1CCC[C@@H]1N*; β3hW = N[C@H](CC(=O)O)Cc1c[nH]c2ccccc12; X12 = O=C([C@H]1CCC[C@@H]1N[*:1])[*:2]; X13 = O=C([C@H]1CNC[C@@H]1N[*:1])[*:2]; β3hE = N[C@@H](CCC(=O)O)CC(=O)O; β3hF = N[C@H](CC(=O)O)Cc1ccccc1; β3hN = NC(=O)C[C@H](N)CC(=O)O; β3hK = NCCCC[C@H](N)CC(=O)O; β3hM = CSCC[C@H](N)CC(=O)O; β3hD = NC(CC(=O)O)CC(=O)O
# Experiments:
# [1] = target: T1, R^0 form of human PTHR-1 (Homo sapiens, UniProt Q03431); assay: Radio-ligand competition binding to R^0 form of human PTHR-1 (COS-7 membranes, 125I-PTH(1-34) tracer, GTPγS)
# T1 construct: expressed in transfected cells; host or cells: COS-7
# T1 sequence (Q03431 27-593): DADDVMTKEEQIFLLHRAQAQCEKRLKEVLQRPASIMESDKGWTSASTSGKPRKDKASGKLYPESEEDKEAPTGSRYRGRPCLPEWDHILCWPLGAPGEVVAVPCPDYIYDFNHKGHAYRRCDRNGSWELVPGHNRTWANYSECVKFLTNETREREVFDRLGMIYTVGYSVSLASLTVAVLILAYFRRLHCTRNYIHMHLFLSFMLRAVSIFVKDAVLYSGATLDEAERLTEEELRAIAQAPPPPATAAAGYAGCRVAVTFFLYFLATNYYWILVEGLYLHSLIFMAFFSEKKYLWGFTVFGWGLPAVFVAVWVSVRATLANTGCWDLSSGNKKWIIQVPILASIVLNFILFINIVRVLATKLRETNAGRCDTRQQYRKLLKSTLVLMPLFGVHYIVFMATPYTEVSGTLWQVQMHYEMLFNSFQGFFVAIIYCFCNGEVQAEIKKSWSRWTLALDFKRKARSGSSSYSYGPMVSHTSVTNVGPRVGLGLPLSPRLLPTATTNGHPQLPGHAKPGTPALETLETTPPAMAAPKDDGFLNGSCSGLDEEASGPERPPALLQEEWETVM
# Excerpt: (§1) Data are means (±SEM) of n≥4 experiments, each performed in duplicate.
# [2] = target: T2, WT rat PTHR-1 (Rattus norvegicus, UniProt P25961); assay: cAMP GloSensor dose-response in GR-35 cells expressing rat PTHR-1; type: cell-based; settings: Table 7
# T2 construct: expressed in transfected cells
# T2 sequence (P25961 27-591): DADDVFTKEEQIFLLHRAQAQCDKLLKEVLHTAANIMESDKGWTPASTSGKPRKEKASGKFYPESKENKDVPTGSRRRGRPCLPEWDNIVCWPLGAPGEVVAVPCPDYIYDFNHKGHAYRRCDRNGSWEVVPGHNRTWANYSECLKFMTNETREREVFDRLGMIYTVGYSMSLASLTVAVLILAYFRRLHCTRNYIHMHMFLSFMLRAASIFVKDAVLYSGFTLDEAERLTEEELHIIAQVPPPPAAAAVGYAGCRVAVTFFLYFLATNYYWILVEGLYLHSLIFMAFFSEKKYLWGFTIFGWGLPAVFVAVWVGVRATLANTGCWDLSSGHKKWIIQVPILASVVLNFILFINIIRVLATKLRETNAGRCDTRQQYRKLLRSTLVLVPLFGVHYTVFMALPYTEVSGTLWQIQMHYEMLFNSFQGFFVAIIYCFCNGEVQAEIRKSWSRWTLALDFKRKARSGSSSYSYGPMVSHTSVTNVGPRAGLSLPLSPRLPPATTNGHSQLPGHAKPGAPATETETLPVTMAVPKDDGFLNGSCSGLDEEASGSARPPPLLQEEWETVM
# [3] = target: T3, RG form of rat PTHR-1 (Rattus norvegicus, UniProt P25961); assay: Radio-ligand competition binding to RG form of rat PTHR-1; settings: Table 5; rat PTHR-1; mean ± SEM; read-out: RG -log (IC50) (converted)
# T3 construct: expressed in transfected cells; host or cells: COS-7
# T3 sequence (P25961 27-591): T2 sequence (P25961 27-591)
# Excerpt: as §1
# [4] = target: T4, RG form of human PTHR-1 (Homo sapiens, UniProt Q03431); assay: Radio-ligand competition binding to RG form of human PTHR-1 (COS-7 membranes, 125I-M-PTH(1-15) tracer, high affinity Gαs mutant)
# T4 construct: expressed in transfected cells; host or cells: COS-7
# T4 sequence (Q03431 27-593): T1 sequence (Q03431 27-593)
# Excerpt: as §1
# [5] = target: T5, WT human PTHR-1 (Homo sapiens, UniProt Q03431); assay: cAMP GloSensor dose-response in GP-2.3 cells expressing human PTHR-1; type: cell-based
# T5 construct: bioactivity of the resulting compound in full-length hPTHR-1 and a truncated version; expressed in transfected cells
# T5 sequence (Q03431 27-593): T1 sequence (Q03431 27-593)
# Summary of the method: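 Confluent cells preloaded with 0.5 mM d-luciferin at room temperature until luminescence baseline stabilised (30 min), then given varying agonist concentrations. Luminescence time course recorded after α/β-peptide addition. Means ±SEM of n>4 experiments, each in duplicate.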
# [6] = target: T6, R^0 form of rat PTHR-1 (Rattus norvegicus, UniProt P25961); assay: Radio-ligand competition binding to R^0 form of rat PTHR-1; settings: Table 5; ratio of R^0 to RG IC50, rat PTHR-1
# T6 construct: expressed in transfected cells; host or cells: COS-7
# T6 sequence (P25961 27-591): T2 sequence (P25961 27-591)
# Excerpt: as §1
# [7] = Calcemic response in mice after subcutaneous injection; type: in vivo; settings: 20 nmol/kg
# Protocol: Compound concentrations were determined by submitting plasma to a cAMP GloSensor assay, quantification of luminescence readout, and conversion to peptide concentration via standard curve. […] See also FIGS. 12A, 12B and 12C.
# Mice (C57BL/6, male, age 9-12 weeks) were treated in accordance with the ethical guidelines adopted by Massachusetts General Hospital. […] Blood was withdrawn just prior to injection (t=0) or at times thereafter. Tail vein blood was collected and immediately used for analysis. Blood Ca^2+ concentration was measured with a Chiron Diagnostics model 634 Ca^2+/pH analyzer.
# [8] = target: T7, PTHR (Homo sapiens, UniProt Q03431); assay: cAMP induction potency, N-terminal modifications and cyclic constraints (Tables 9, 10, 13); type: cell-based; settings: Table 9
# T7 construct: expressed in transfected cells
# T7 sequence (Q03431 27-593): T1 sequence (Q03431 27-593)
# Protocol: For cAMP dose-response assays, monolayers of confluent HEK 293 cells were pre-incubated with buffer containing d-luciferin (0.5 mM) in 96 well plates at room temperature until a stable baseline level of luminescence was established (30 min). Varying concentrations of agonist were then added, and the time course of luminescence response was recorded using a Perkin Elmer plate reader following α/β-peptide addition.
compound,measurement,setting,value
CC[C@H](C)[C@H](NC(=O)[C@H](CCC(=O)O)NC(=O)[C@H](CO)NC(=O)[C@@H](NC(=O)[C@@H](N)CO)C(C)C)C(=O)N[C@@H](CCC(N)=O)C(=O)N[C@@H](CC(C)C)C(=O)N[C@@H](CCSC)C(=O)N[C@@H](Cc1c[nH]cn1)C(=O)N[C@@H](CC(N)=O)CC(=O)N[C@@H](CC(C)C)C(=O)NCC(=O)N[C@@H](CCCCN)C(=O)N[C@H](CC(=O)N[C@@H](CC(C)C)C(=O)N[C@@H](CC(N)=O)C(=O)N[C@@H](CO)C(=O)N[C@@H](CCSC)CC(=O)N[C@@H](CCC(=O)O)C(=O)N[C@@H](CCCNC(=N)N)C(=O)N[C@H](C(=O)N[C@@H](CCC(=O)O)CC(=O)N[C@@H](Cc1c[nH]c2ccccc12)C(=O)N[C@@H](CC(C)C)C(=O)N[C@@H](CCCNC(=N)N)C(=O)N[C@@H](CCCCN)CC(=O)N[C@@H](CCCCN)C(=O)N[C@@H](CC(C)C)C(=O)N[C@@H](CCC(N)=O)C(=O)N[C@@H](CC(=O)O)CC(=O)N[C@H](C(=O)N[C@@H](Cc1c[nH]cn1)C(=O)N[C@@H](CC(N)=O)C(=O)N[C@H](CC(N)=O)Cc1ccccc1)C(C)C)C(C)C)Cc1c[nH]c2ccccc12 [D7] (H-SVSEIQLMH[β3hN]LGK[β3hW]LNS[β3hM]ERV[β3hE]WLR[β3hK]KLQ[β3hD]VHN[β3hF]-NH2),IC50,[1],3.5 nM
same,R^0/RG,"[1]; Table 4, ratio of R^0 to RG IC50, human PTHR-1",15
same,Fold nM PTH(1-34),[2]; EC50 relative to PTH(1-34),3.89
same,Max,"[2]; GR-35 cells, 12-16 minutes after ligand addition, mean ± SEM",40 ± 18 luminescence counts per second × 10−3
same,EC50,"[2]; GR-35 cells, read-out: EC50",1.62 nM
same,IC50,[3],2.04 nM
same,IC50,[4],0.24 nM
same,IC50,"[4]; Table 4, human PTHR-1, mean ± SEM, read-out: RG -log (IC50) (converted)",0.234 nM
same,EC50,[5],0.39 nM
same,cAMP (hPTHR-1) Max,"[5]; Table 1, luminescence counts per second relative to PTH(1-34), 12-16 minutes after ligand addition",0.85
same,Fold nM PTH(1-34),"[5]; Table 6, EC50 relative to PTH(1-34)",2.26
same,Max,"[5]; Table 6, GP-2.3 cells, 12-16 minutes after ligand addition, mean ± SEM",184 ± 18 luminescence counts per second × 10^−3
same,R^0/RG,[6],7
"CC[C@H](C)[C@H](NC(=O)[C@H](CCC(=O)O)NC(=O)[C@H](CO)NC(=O)[C@@H](NC(=O)[C@@H](N)CO)C(C)C)C(=O)N[C@@H](CCC(N)=O)C(=O)N[C@@H](CC(C)C)C(=O)N[C@@H](CCSC)C(=O)N[C@@H](Cc1c[nH]cn1)C(=O)N[C@@H](CC(N)=O)C(=O)N[C@@H](CC(C)C)C(=O)NCC(=O)N[C@@H](CCCCN)C(=O)N[C@H]1CCC[C@@H]1C(=O)N[C@@H](CC(C)C)C(=O)N[C@@H](CC(N)=O)C(=O)N[C@@H](CO)C(=O)N[C@H]1CCC[C@@H]1C(=O)N[C@@H](CCC(=O)O)C(=O)N[C@@H](CCCNC(=N)N)C(=O)N[C@H](C(=O)N[C@H]1CNC[C@@H]1C(=O)N[C@@H](Cc1c[nH]c2ccccc12)C(=O)N[C@@H](CC(C)C)C(=O)N[C@@H](CCCNC(=N)N)C(=O)N[C@H]1CNC[C@@H]1C(=O)N[C@@H](CCCCN)C(=O)N[C@@H](CC(C)C)C(=O)N[C@@H](CCC(N)=O)C(=O)N[C@H]1CCC[C@@H]1C(=O)N[C@H](C(=O)N[C@@H](Cc1c[nH]cn1)C(=O)N[C@@H](CC(N)=O)C(=O)N[C@H]1CCC[C@@H]1C(N)=O)C(C)C)C(C)C [FcycD6, SVSEIQLMHNLGKXLNSXERVZWLRZKLQXVHNX-NH2] (H-SVSEIQLMHNLGK[X12]LNS[X12]ERV[X13]WLR[X13]KLQ[X12]VHN-{NH(1S,2S-2-CONH2-cPent)}; N-terminus assumed)",calcemic response (blood Ca^2+ concentration),[7],very marked activity to increase calcium blood levels
same,Fold PTH,[8],3.2
same,EC50,"[8]; read-out: EC50, nM (cAMP induction potency)",0.26 ± 0.05 nM
